Measured values from ChEMBL document CHEMBL4118288, “Antiplasmodial activity of hydroxyethylamine analogs: Synthesis, biological activity and structure activity relationship of plasmepsin inhibitors” (Bioorg Med Chem, 2018).
pIC50, pKi: −log10 of the molar value.

How the values were obtained:
Plasmodium falciparum = assay: Antiplasmodial activity against chloroquine-susceptible blood forms of Plasmodium falciparum 3D7 infected in human erythrocytes measured after 48 hrs by SYBR green1 staining based fluorescence assay; type: functional, organism-based; conditions: 3D7, 48 h
[1] = target: Plasmepsin II (Plasmodium falciparum) (UniProt P46925); assay: Inhibition of Plasmodium falciparum Plm2 at 10 uM using synthetic substrate pretreated for 5 mins followed by substrate addition measured immediately by spectrophotometric method relative to control
Plasmepsin II (Plasmodium falciparum), sequence (P46925 125-453 limits assumed): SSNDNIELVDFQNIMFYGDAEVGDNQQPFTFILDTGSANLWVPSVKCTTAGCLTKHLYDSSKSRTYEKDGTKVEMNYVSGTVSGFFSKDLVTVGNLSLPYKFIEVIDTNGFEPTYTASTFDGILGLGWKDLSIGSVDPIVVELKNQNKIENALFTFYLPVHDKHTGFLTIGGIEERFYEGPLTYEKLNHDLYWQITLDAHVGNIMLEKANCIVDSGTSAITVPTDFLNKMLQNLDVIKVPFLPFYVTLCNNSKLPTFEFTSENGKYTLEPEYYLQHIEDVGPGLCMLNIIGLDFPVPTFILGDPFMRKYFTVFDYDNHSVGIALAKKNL

[2] = target: Plasmepsin 4 (Plasmodium falciparum) (UniProt Q17SB2); assay: Inhibition of Plasmodium falciparum Plm4 at 10 uM using synthetic substrate pretreated for 5 mins followed by substrate addition measured immediately by spectrophotometric method relative to control
Plasmepsin 4 (Plasmodium falciparum), sequence (Q17SB2 1-448): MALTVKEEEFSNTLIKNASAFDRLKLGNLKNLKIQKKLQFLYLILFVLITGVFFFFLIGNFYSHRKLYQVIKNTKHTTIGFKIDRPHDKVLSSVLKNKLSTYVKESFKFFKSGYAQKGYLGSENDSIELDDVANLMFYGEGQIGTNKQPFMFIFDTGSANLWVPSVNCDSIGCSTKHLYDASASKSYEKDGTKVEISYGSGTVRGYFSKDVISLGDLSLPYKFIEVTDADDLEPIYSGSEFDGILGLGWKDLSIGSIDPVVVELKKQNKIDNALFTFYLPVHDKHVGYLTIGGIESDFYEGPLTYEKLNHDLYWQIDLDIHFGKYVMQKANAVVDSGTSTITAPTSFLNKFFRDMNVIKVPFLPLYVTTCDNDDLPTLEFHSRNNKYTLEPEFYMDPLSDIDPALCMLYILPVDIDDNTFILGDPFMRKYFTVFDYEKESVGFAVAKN

[3] = target: Plasmepsin II (Plasmodium falciparum) (UniProt P46925); assay: (§1) Inhibition of Plasmodium falciparum Plm2 using synthetic substrate pretreated for 5 mins followed by substrate addition measured immediately by spectrophotometric method
[4] = target: Plasmepsin 4 (Plasmodium falciparum) (UniProt Q17SB2); assay: (§2) Inhibition of Plasmodium falciparum Plm4 using synthetic substrate pretreated for 5 mins followed by substrate addition measured immediately by spectrophotometric method
Plasmepsin 4 = Plasmepsin 4 (Plasmodium falciparum, UniProt Q17SB2); assay: as §2
Plasmepsin 4, sequence (Q17SB2 whole entry): as the sequence (Q17SB2 1-448) above

HepG2 = assay: Cytotoxicity against human HepG2 cells after 48 hrs by MTT assay; type: cell-based; conditions: HepG2, 48 h
Vero = assay: Cytotoxicity against African green monkey Vero cells after 48 hrs by MTT assay; type: cell-based; conditions: Chlorocebus sabaeus
[5] = Therapeutic index, ratio of IC50 for human HepG2 cells to IC50 for chloroquine-susceptible blood forms of Plasmodium falciparum 3D7 infected in human erythrocytes; type: toxicity, cell-based; conditions: read-out: Ratio IC50
[6] = Therapeutic index, ratio of IC50 for African green monkey Vero cells to IC50 for chloroquine-susceptible blood forms of Plasmodium falciparum 3D7 infected in human erythrocytes; type: toxicity, cell-based; conditions: read-out: Ratio IC50
Plasmepsin II = Plasmepsin II (Plasmodium falciparum, UniProt P46925); assay: as §1
Plasmepsin II, sequence (P46925 whole entry): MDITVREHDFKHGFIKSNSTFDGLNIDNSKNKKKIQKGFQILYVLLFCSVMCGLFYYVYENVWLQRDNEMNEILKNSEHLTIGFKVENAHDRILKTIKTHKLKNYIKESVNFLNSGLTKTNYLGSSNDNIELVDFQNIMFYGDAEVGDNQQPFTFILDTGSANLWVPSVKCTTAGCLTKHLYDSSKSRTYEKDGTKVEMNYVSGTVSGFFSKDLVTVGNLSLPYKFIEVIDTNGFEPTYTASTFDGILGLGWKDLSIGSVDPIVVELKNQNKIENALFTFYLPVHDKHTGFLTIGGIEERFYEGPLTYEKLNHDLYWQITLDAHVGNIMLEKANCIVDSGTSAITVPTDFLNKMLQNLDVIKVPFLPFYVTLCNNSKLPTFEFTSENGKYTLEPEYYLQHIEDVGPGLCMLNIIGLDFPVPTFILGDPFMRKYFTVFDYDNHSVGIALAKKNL

CC[C@H](C)[C@H](NC(=O)OC(C)(C)C)C(=O)N[C@@H](Cc1ccccc1)[C@H](O)CN1CCN(C[C@@H](O)[C@H](Cc2ccccc2)NC(=O)[C@@H](NC(=O)OC(C)(C)C)[C@@H](C)CC)CC1 showed a pIC50 (Plasmodium falciparum) of 5.74.
With CC[C@H](C)[C@@H](C(=O)N[C@@H](Cc1ccccc1)[C@H](O)CN1CCN(C[C@@H](O)[C@H](Cc2ccccc2)NC(=O)[C@H]([C@@H](C)CC)N2C(=O)c3ccc(C)cc3C2=O)CC1)N1C(=O)c2ccc(C)cc2C1=O the inhibition [1] was greater than 50%, the inhibition [2] was greater than 50% and the inhibition [3] was “Dose-dependent effect”. The inhibition [4] was “Dose-dependent effect”, the pKi (Plasmepsin 4) was 6.08 and the pIC50 (Plasmodium falciparum) was 5.51.
In the case of Cc1ccc2c(c1)C(=O)N([C@H](C(=O)NC(Cc1ccccc1)C(O)CN1CCN(C[C@@H](O)[C@H](Cc3ccccc3)NC(=O)[C@H](C(C)C)N3C(=O)c4ccc(C)cc4C3=O)CC1)C(C)C)C2=O (single isomer, unassigned), the pIC50 (Plasmodium falciparum) was 5.65.
N[C@@H](Cc1ccccc1)[C@H](O)CN1CCN(C[C@@H](O)[C@@H](N)Cc2ccccc2)CC1 showed a pIC50 (Plasmodium falciparum) of 5.46.
Molecule O=C(CN1C(=O)c2ccccc2C1=O)NC(Cc1ccccc1)C(O)CN1CCN(C[C@@H](O)[C@H](Cc2ccccc2)NC(=O)CN2C(=O)c3ccccc3C2=O)CC1 (single isomer, unassigned) has a pIC50 (Plasmodium falciparum) of 4.69.
For C[C@@H]1CC[C@H]2[C@@H](C)C(=O)O[C@@H]3O[C@@]4(C)CC[C@@H]1[C@]32OO4 [ARTEMISININ], the pIC50 (Plasmodium falciparum) was 7.13.
For C[C@H](NC(=O)OC(C)(C)C)C(=O)N[C@@H](Cc1ccccc1)[C@H](O)CN1CCN(C[C@H](O)[C@@H](Cc2ccccc2)NC(=O)[C@H](C)NC(=O)OC(C)(C)C)CC1, the pIC50 (Plasmodium falciparum) was 5.08.
In the case of CC[C@H](C)[C@H](N)C(=O)N[C@@H](Cc1ccccc1)[C@H](O)CN1CCN(C[C@@H](O)[C@H](Cc2ccccc2)NC(=O)[C@@H](N)[C@@H](C)CC)CC1, the pIC50 (Plasmodium falciparum) was 5.87, the pIC50 (HepG2) was 3.90 and the pIC50 (Vero) was less than 3.81. The selectivity ratio [5] was greater than 10 and the selectivity ratio [6] was greater than 10.
For Cc1ccc2c(c1)C(=O)N([C@@H](C)C(=O)NC(Cc1ccccc1)C(O)CN1CCN(C[C@@H](O)[C@H](Cc3ccccc3)NC(=O)[C@H](C)N3C(=O)c4ccc(C)cc4C3=O)CC1)C2=O (single isomer, unassigned), the pIC50 (Plasmodium falciparum) was 4.72.
In the case of CC(C)[C@H](NC(=O)OC(C)(C)C)C(=O)N[C@@H](Cc1ccccc1)[C@H](O)CN1CCN(C[C@H](O)[C@@H](Cc2ccccc2)NC(=O)[C@@H](NC(=O)OC(C)(C)C)C(C)C)CC1, the pIC50 (Plasmodium falciparum) was 5.36.
In the case of C[C@H](N)C(=O)NC(Cc1ccccc1)C(O)CN1CCN(C[C@@H](O)[C@H](Cc2ccccc2)NC(=O)[C@H](C)N)CC1 (single isomer, unassigned), the pIC50 (Plasmodium falciparum) was 5.16.
In the case of Cc1ccc2c(c1)C(=O)N([C@@H](CC(C)C)C(=O)NC(Cc1ccccc1)C(O)CN1CCN(C[C@@H](O)[C@H](Cc3ccccc3)NC(=O)[C@H](CC(C)C)N3C(=O)c4ccc(C)cc4C3=O)CC1)C2=O (single isomer, unassigned), the inhibition [1] was greater than 50%, the inhibition [2] was greater than 50% and the inhibition [3] was “Dose-dependent effect”. The pKi (Plasmepsin II) was 5.72, the inhibition [4] was “Dose-dependent effect” and the pKi (Plasmepsin 4) was 5.70. For the same molecule, the pIC50 (Plasmodium falciparum) was 5.64, the pIC50 (HepG2) was 4.57 and the pIC50 (Vero) was 4.22. It also gave a selectivity ratio [5] greater than 10 and a selectivity ratio [6] greater than 10.
C[C@@H](C(=O)NC(Cc1ccccc1)C(O)CN1CCN(C[C@@H](O)[C@H](Cc2ccccc2)NC(=O)[C@H](C)N2C(=O)c3ccccc3C2=O)CC1)N1C(=O)c2ccccc2C1=O (single isomer, unassigned) gave a pIC50 (Plasmodium falciparum) of 5.12.
CC(C)[C@H](N)C(=O)NC(Cc1ccccc1)C(O)CN1CCN(C[C@@H](O)[C@H](Cc2ccccc2)NC(=O)[C@@H](N)C(C)C)CC1 (single isomer, unassigned) showed a pIC50 (Plasmodium falciparum) of 5.57.
With Cc1ccc2c(c1)C(=O)N(CC(=O)N[C@@H](Cc1ccccc1)[C@H](O)CN1CCN(C[C@H](O)[C@@H](Cc3ccccc3)NC(=O)CN3C(=O)c4ccc(C)cc4C3=O)CC1)C2=O the inhibition [1] was greater than 50%, the inhibition [2] was greater than 50% and the inhibition [3] was “Dose-dependent effect”. The inhibition [4] was “Dose-dependent effect”, the pKi (Plasmepsin 4) was 5.48 and the pIC50 (Plasmodium falciparum) was 4.97.
In the case of CC(C)(C)OC(=O)NCC(=O)NC(Cc1ccccc1)C(O)CN1CCN(C[C@@H](O)[C@H](Cc2ccccc2)NC(=O)CNC(=O)OC(C)(C)C)CC1 (single isomer, unassigned), the pIC50 (Plasmodium falciparum) was 5.07.
